Data reported in patent publication US8440637B2, “Combination treatment for the treatment of hepatitis C virus infection” (priority 2007, dated 2013).
Strand notation (5' to 3'): a small letter for the sugar, then the base; units joined by * are phosphorothioate-linked, units joined directly phosphodiester-linked; [ ] holds rarer units or linkages, { } end groups; capitals alone tell only the bases. l = locked nucleic acid (LNA); [5mC] = 5-methylcytosine; d = 2'-deoxy (DNA)

Legend:
miR-122a [1] = test: Plasma cholesterol in LNA anti-miR122 treated mice; assay type: in vivo, mouse; details: Day 6; i.p. on day 0, 2 and 4
Procedure: In vivo study: Ten groups of animals (female C57/BL6; 3 mice per group) were treated in the following manner. Group 1 animals were injected with 0.2 ml saline by i.p. on day 0, day 2 and day 4. Groups 2-10 were dosed by i.p. with three different conc. (25 mg/kg, 5 mg/kg and 1 mg/kg) of either LNA antimiR-122a/SEQ ID NO: 61 (group 2-4), LNA antimir-122a/SEQ ID NO: 66 (group 5-7) or LNA antimir-122a/SEQ ID NO: 63 (group 8-10); the LNA antimir-122a sequences are given in the Table 1. All three LNA antimiR-122a oligonucleotides target the liver-specific miR-122a. The doses were calculated from the Day 0 body weights of each animal.
The animals were sacrificed 48 hours after last dose (Day 6), retro-orbital blood was collected in tubes containing EDTA and the plasma fraction harvested and stored frozen −80° C. for cholesterol analysis. At sacrifice livers were dissected and one portion was cut into 5 mm cubes and immersed in 5 volumes of ice-cold RNAlater. […]
Total cholesterol level was measured in plasma using a colometric assay Cholesterol CP from ABX Pentra. Cholesterol was measured following enzymatic hydrolysis and oxidation (2,3). […] 250 μl reagent was added and within 5 min the cholesterol content measured at a wavelength of 540 nm. […] The cholesterol level was determined by subtraction of the background and presented relative to the cholesterol levels in plasma of saline treated mice.

HCV replicon (NNeo/C-5B) = test: HCV replication in Huh-7 cells transfected with HCV replicon, Northern blot; assay type: cell-based, Hepatitis C virus; details: Huh-7 with HCV replicon; 48 hours; compared to mock and mismatch control
Procedure: We assess the efficacy of SEQ ID NO: 63 reducing HCV replication in the Huh-7 based cell model. Preliminary data on SEQ ID NO: 63 along with its truncated version SEQ ID NO: 66 (13-mer LNA-antimiR) and 4 nt mismatch control from inhibiting HCV replication in the Huh-7 cell line transfected with a HCV replicon (NNeo/C-5B). The different LNA-antimiR molecules along with a 2′ OMe antisense and scramble oligonucleotide were transfected into Huh-7 cells, HCV was allowed to replicate for 48 hours. Total RNA samples extracted from the Huh-7 cells were subjected to Northern blot analysis.

miR-122a [2] = test: Melting temperature (Tm) of LNA anti-miR/miR-122a RNA duplex; assay type: physicochemical, human; details: for Tm, oligo to miR-122 RNA complement: miR-122a; for Tm (° C.): Table 2, towards synthetic miR-122a RNA oligonucleotide with phosphorothioate linkages, PS backbone
Procedure: The melting temperatures were assessed towards the mature miR-122a sequence, using a synthetic miR-122a RNA oligonucleotide with phosphorothioate linkaged.
(§1) The LNA anti-miR/miR-122a oligo duplex was diluted to 3 μM in 500 μl RNase free H2O, which was then mixed with 500 μl 2× dimerization buffer (final oligo/duplex conc. 1.5 μM, 2× Tm buffer: 200 mM NaCl, 0.2 mM EDTA, 20 mM NaP, pH 7.0, DEPC treated to remove RNases). The mix was first heated to 95 degrees for 3 minutes, then allowed to cool at room temperature (RT) for 30 minutes.
(§2) Following RT incubation Tm was measured on Lambda 40 UV/VIS Spectrophotometer with peltier temperature progammer PTP6 using PE Templab software (Perkin Elmer). The temperature was ramped up from 20° C. to 95° C. and then down again to 20° C., continuously recording absorption at 260 nm. First derivative and local maximums of both the melting and annealing was used to assess melting/annealing point (Tm), both should give similar/same Tm values. For the first derivative 91 points was used to calculate the slope.

miR-122 = test: microRNA specific northern blot of mouse liver RNA; assay type: in vivo
Procedure: We decided to assess the effect of SEQ ID NO:63 on miR-122 miRNA levels in the livers of SEQ ID NO: 63-treated mice. The LNA-antimiRs SEQ ID NO:63 and SEQ ID NO: 61 were administered into mice by three i.p. injections on every second day over a six-day-period at indicated doses followed by sacrificing the animals 48 hours after the last dose. Total RNA was extracted from the livers. miR-122 levels were assessed by microRNA specific northern blot (FIG. 6)
The liver RNA was also subjected to microRNA Northern blot. Shown in FIG. 13 is a membrane probed with a miR-122a specific probe (upper panel) and re-probed with a Let-7 specific probe (lower panel). With the miR-122 probe, two bands could be detected, one corresponding to mature miR-122 and one corresponding to a duplex between SEQ ID NO: 61 and miR-122.
Preparation of northern membranes was done as described in Sempere et al. 2002, except for the following changes: Total RNA, 10 μg per lane, in formamide loading buffer (47.5% formamide, 9 mM EDTA, 0.0125% Bromophenol Blue, 0.0125% Xylene Cyanol, 0.0125% SDS) was loaded onto a 15% denaturing Novex TBE-Urea polyacrylamide gel (Invitrogen) without preheating the RNA. The RNA was electrophoretically transferred to a GeneScreen plus Hybridization Transfer Membrane (PerkinElmer) at 200 mA for 35 min. Membranes were probed with 32P-labelled LNA-modified oligonucleotides complimentary to the mature microRNAs*. The LNA oligonucleotides were labelled and hybridized to the membrane as described in (Válóczi et al. 2004) except for the following changes: The prehybridization and hybridization solutions contained 50% formamide, 0.5% SDS, 5×SSC, 5×Denhardt's solution and 20 μg/ml sheared denatured herring sperm DNA. Hybridizations were performed at 45° C. The blots were visualized by scanning in a Storm 860 scanner. The signal of the background membrane was subtracted from the radioactive signals originating from the miRNA bands. The values of the miR-122 signals were corrected for loading differences based on the let-7a signal. […]

122R, DNA = test: Melting temperature (Tm) of oligo against DNA complement; assay type: physicochemical
Procedure: as §1, §2
However, in one embodiment the Tm may be made with a complementary DNA ([…]) molecule. Typically the Tm measured against a DNA complementary molecule is about 10° C. lower than the Tm with an equivalent RNA complement. The Tm measured using the DNA complement may therefore be used in cases where the duplex has a very high Tm.

Substance	plasma cholesterol compared to saline control (in words) (miR-122a [1])	HCV RNA / inhibition of HCV replication (in words) (HCV replicon (NNeo/C-5B))	Tm, oligo to miR-122 RNA complement (miR-122a [2])	blocking of miR-122, northern blot (in words) (miR-122; three i.p. injections every second day, 5 and 25 mg/kg, 48 hours after last dose)	duplex versus mature band on northern blot, comparison (in words) (miR-122; three i.p. injections every second day, 48 hours after last dose)	Tm (° C.) (miR-122a [2])	Tm, oligo to DNA complement (122R, DNA)	mature miR-122, small RNA northern blot (in words) (miR-122; liver RNA, let-7a control not altered)
5′-AttGTcaCaCtCC-3′ (antisense lA*dT*dT*lG*lT*dC*dA*l[5mC]*dA*l[5mC]*dT*l[5mC]*l[5mC]) [SEQ ID NO: 66]	markedly lowered level of plasma cholesterol	comparable efficacy with SEQ ID NO: 63	74 °C					
5′-CcAttGTcaCaCtCC-3′ (antisense CCATTGTCACACTCC; sugars from the 5' end ldlddllddldldll, backbone and methylation of C not given here) [SEQ ID NO: 63]	markedly lowered level of plasma cholesterol	significant reduction of HCV RNA	79 °C	completely blocked miR-122	equally efficient at 1 mg/kg as SEQ ID NO: 61SEQ ID NO: 61 at 25 mg/kg	78 °C	66 °C	
5′-ccAttGtcAcaCtcCa-3′ (antisense CCATTGTCACACTCCA; sugars from the 5' end ddlddlddlddlddld, backbone and methylation of C not given here) [SEQ ID NO: 61]			69 °C			69 °C	57 °C	significantly reduced levels of detectable mature miR-122
